According to US20240165029A1, “ASSISTED LOADING OF HYDROPHOBIC MOLECULES INTO LIPOSOMES” (UNIVERSITY OF CONNECTICUT, priority 2021, published 2024):
“Also recorded” adds a separate entry of the source.

Assays:
[1] = Spectroscopic (UV/Vis) determination of the concentration of xanthophylls in LUVs; assay type: physicochemical
Method: The concentrations of xanthophylls were measured using a 2 mm optical path quartz cell in an Agilent Cary 60 UV-Vis spectrophotometer. To measure the concentration of xanthophylls in LUVs, a 10 μL aliquot is mixed with 300 μL of DMF. Standards and samples were measured at least 3 times and the data were averaged.

[2] = target: T1, mBCO2 (Mus musculus, UniProt Q99NF1); test: Acyl-RAC assay of mBCO2 palmitoylation in HEK293F cells; assay type: cell-based; conditions: for mBCO2 palmitoylation (protein band in HAM-treated sample): HEK293F cells, 5 h
T1 construct: expressed in transfected cells; host or cells: HEK293F (Human 293F FreeStyle) cells
T1 sequence (Q99NF1 1-532): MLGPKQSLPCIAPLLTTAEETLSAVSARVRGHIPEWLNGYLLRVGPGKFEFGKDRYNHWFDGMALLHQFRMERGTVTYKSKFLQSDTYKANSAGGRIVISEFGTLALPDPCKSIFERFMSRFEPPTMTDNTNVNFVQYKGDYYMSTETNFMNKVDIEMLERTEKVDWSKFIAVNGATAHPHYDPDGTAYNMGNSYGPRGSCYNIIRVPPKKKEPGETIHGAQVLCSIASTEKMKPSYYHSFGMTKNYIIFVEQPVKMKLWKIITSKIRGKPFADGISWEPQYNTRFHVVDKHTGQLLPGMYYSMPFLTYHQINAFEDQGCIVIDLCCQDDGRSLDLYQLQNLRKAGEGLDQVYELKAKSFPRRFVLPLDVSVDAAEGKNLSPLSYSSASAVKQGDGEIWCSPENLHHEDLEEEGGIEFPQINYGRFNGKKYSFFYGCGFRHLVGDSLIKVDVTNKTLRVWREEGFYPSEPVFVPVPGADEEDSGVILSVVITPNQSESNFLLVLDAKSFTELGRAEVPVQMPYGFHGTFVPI
Method: previously published protocol. Briefly, a typical transfection experiment used 3×10^7 cells in 28 mL of FreeStyle medium mixed with 2 mL of OptiMem-I reduced serum medium containing 40 μL 293fectin transfection reagent (Invitrogen) and 20 μg of each expression plasmid under study. Cells were grown with shaking at 125 rpm on an orbital shaker platform in a 37° C. incubator with a humidified atmosphere of 8% CO2 for 48 h total. In total, 200 μl of vesicles with xanthophylls were added, incubating for 5 hr under standard growth conditions.
For cell lysis and the Acyl-RAC assay, the same protocol as previously described in detail, with slight modifications, was used. BCO2-overexpressing HEK293F cells were washed with 1X-PBS and resuspended in lysis buffer (50 mM HEPES (pH 7.4) containing 150 mM NaCl, 5 mM EDTA, 1% glycerol, and 1× complete protease inhibitor cocktail (Roche Diagnostics)). Resuspended cells were lysed using N2 cavitation followed by centrifugation at 900×g for 10 min at 4° C. to remove the cell debris and nuclei. The clarified supernatant was then subjected to centrifugation at 20,000×g for 30 min at 4° C. to obtain heavy membrane (mitochondrial) pellet and post-mitochondrial supernatant (light membrane and cytosol) fractions. Typically, a 1000 μg amount of resuspended heavy membrane pellet protein (resuspended in lysis buffer containing 0.1% Triton X-100) was used for palmitoylation detection assay. Briefly, free cysteine sulfhydryl (—SH) groups were blocked with 0.5% (v/v) S-methyl methanethiosulfonate (MMTS) containing blocking buffer for 15 min at 40 ° C. The blocked protein samples were then subjected to acetone protein precipitation. The protein pellet was then resuspended in 550 μl 100 mM HEPES containing 5 mM EDTA and 1% SDS (v/v). The samples were then divided into two 250 μl aliquots (containing 400 μg protein amount) and the remaining 50 μl was used as an input. The samples were treated with 250 mM hydroxylamine (NH2OH, HAM) or control (250 mM NaCl). To capture proteins with free —SH groups, each sample was mixed with 10 mg activated thiol-sepharose 4B beads (Sigma) and incubated for 2 h at room temperature with continuous end-over-end rotation. After incubation, the beads were washed, and bound proteins were eluted by boiling the beads with an aliquot of 50 μL elution sample buffer. The input and eluted fractions from “HAM” and “control” samples were separated by SDS-PAGE and analyzed by Western blotting.
(§1) It was previously established that mBCO2 in eukaryotic HEK293F cells is palmitoylated. […] Knowing that BCO2 cleaves xanthophylls, palmitoylation assays were ran to study the palmitoylation status of mBCO2 in the presence of xanthophylls. First, xanthophylls were attempted to be delivered with the detergent Tween 40 [50]. […] Therefore, a new method to deliver xanthophylls without detergents using unilamellar LUVs as described above was established. The content of xanthophylls in the HEK293F cells after 5 h of treatment was similar to a Tween 40 delivery system in ARPE-19 cells (1-2%) (FIG. 9A-9B). Subsequently, the acyl-RAC method was used as described previously. The membrane fraction of HEK293F cells expressing mBCO2 was subjected to treatment with hydroxylamine (+HAM) and an equal portion of the fraction was treated with 250 mM NaCl (−HAM) which served as control.

[3] = target: T1, mBCO2; test: Immunocolocalization of mBCO2 in COS7 cells by confocal microscopy; assay type: cell-based; conditions: for percent of colocalization of mBCO2 with nuclear marker: 5 h, lutein 0.15 μM, violaxanthin 0.6 μM, compared with zeaxanthin 0.45 μM
Method: BCO2-overexpressing COS7 cells (1×10^6 cells/mL) seeded on poly L-lysine coated 18 mm coverslips were analyzed by immunofluorescence microscopy to determine the localization of BCO2 protein in different subcellular organelles as described previously. Briefly, COS7 cells were transfected with 20 μg of BCO2-Lumio V5 tag plasmid using Fugene® 6 transfection reagent (1:6 DNA: Fugene 6 ratio). After 43 h, BCO2-transfected cells were treated with substrate-encapsulated LUVs for 5 h. Fixed cells were immunostained with V5 monoclonal and polyclonal antibodies alone and together with primary antibodies specific for different subcellular organelles (ER (PDIA3), Golgi (MAN2A1), mitochondria (COX IV and HSP60), and peroxisomes (PMP70)), followed by Alexa fluorophore-conjugated secondary antibodies (Invitrogen). Cell nuclei were stained with DAPI (1 μg/μL solution; Sigma). Slides were then visualized with a Zeiss LSM 700 confocal microscope using a 40× oil immersion lens/1.4-NA and Zeiss ZEN software. Pearson's correlation coefficient values were determined for analysis of the co-localization of BCO2 protein and different organelles and represented as mean±standard deviation. For nuclear co-localization of BCO2 protein, the Pearson's correlation coefficient of BCO2 with DAPI-stained nuclei was measured using the results from three independent experiments: single labeling of BCO2 “alone”, double labeling of BCO2 with mitochondrial markers COX IV and HSP60. Results shown were typical of a minimum of three independent experiments with 5-10 fields of view containing on average 1-10 cells/field of view.
Next, BCO2 localization by immunofluorescence microscopy was examined using mBCO2 transfected COST cells with various organellar markers (for mitochondria, peroxisomes, endoplasmic reticulum (ER), and Golgi). It was confirmed that V5 tag antibodies recognize specifically mBCO2-V5 protein in transfected HEK293F cells (FIG. 12A-12F). For nuclear labeling, DAPI nuclear stain was used. […]

[4] = target: T1, mBCO2; conditions: earlier work [34]; cited from earlier work
[5] = target: T1, mBCO2; conditions: HEK293F cells, earlier work [34]; cited from earlier work
[6] = tested on: HEK293F cells; test: Tween 40 delivery: effect on HEK293F cells; assay type: cell-based, human; conditions: higher concentration of Tween 40 (0.1%)
From the text: as §1

Compound: CC1=C(/C=C/C(C)=C/C=C/C(C)=C/C=C/C=C(C)/C=C/C=C(C)/C=C/C2=C(C)C[C@@H](O)CC2(C)C)C(C)(C)C[C@H](O)C1 [zeaxanthin]
- final concentration of xanthophyll in LUVs measured by UV/Vis ([1]; DMPC/DMPS LUVs): 0.14 g/L
- final concentration of xanthophyll in LUVs measured by UV/Vis ([1]; DPPC/DPPS LUVs): 0.038 g/L
- mBCO2 palmitoylation (protein band in HAM-treated sample) ([2]; 0.45 μM, DPPC/DPPS-encapsulated): residual mBCO2 palmitoylation is seen in some samples

Compound: CC1=C[C@H](O)CC(C)(C)[C@H]1/C=C/C(C)=C/C=C/C(C)=C/C=C/C=C(C)/C=C/C=C(C)/C=C/C1=C(C)C[C@@H](O)CC1(C)C [lutein]
- percent of colocalization of mBCO2 with nuclear marker [3]: higher
- percent colocalization of BCO2 in the nucleus ([3]; lower concentration of lutein (0.06 μM) versus 0.15 μM): decreased in a lutein concentration-dependent manner
- final concentration of xanthophyll in LUVs measured by UV/Vis ([1]; DMPC/DMPS LUVs): 0.0125 g/L
- mBCO2 palmitoylation (protein band in HAM-treated sample) ([2]; 0.06 μM lutein in DMPC/DMPS): no protein band was detected in the HAM-treated sample; also recorded: residual mBCO2 palmitoylation is seen in some samples
- mBCO2 palmitoylation (protein band in HAM-treated sample) ([2]; 0.15 μM lutein in DMPC/DMPS): no protein band was detected in the HAM-treated sample

Compound: CC1=C(/C=C/C(C)=C/C=C/C(C)=C/C=C/C=C(C)/C=C/C=C(C)/C=C/C2=C(C)CCCC2(C)C)C(C)(C)CCC1 [β-carotene]
- mBCO2 colocalization with the nuclear DAPI stain [4]: mBCO2 colocalization with the nuclear DAPI stain was observed
- mBCO2 palmitoylation in presence of substrate [5]: loses palmitoylation

Compound: CC(/C=C/C=C(C)/C=C/[C@@]12O[C@]1(C)C[C@@H](O)CC2(C)C)=C\C=C\C=C(C)\C=C\C=C(C)\C=C\[C@@]12O[C@]1(C)C[C@@H](O)CC2(C)C [violaxanthin]
- percent of colocalization of mBCO2 with nuclear marker [3]: higher
- final concentration of xanthophyll in LUVs measured by UV/Vis ([1]; DMPC/DMPS LUVs): 0.07 g/L
- mBCO2 palmitoylation (protein band in HAM-treated sample) ([2]; 0.6 μM, DMPC/DMPS-encapsulated): residual mBCO2 palmitoylation is seen in some samples

Compound: Tween 40 [reference compound]
- effect on mBCO2 membrane association in Acyl-RAC assay ([2]; lower concentration of Tween 40 (0.01%)): eluted mBCO2 from membranes during the Acyl-RAC assay even without hydroxylamine treatment
- effect on HEK293F cells [6]: led to HEK293F cell apoptosis
